Source: US20120305476A1, “TREATMENT METHOD FOR REDUCING THE PRODUCTION OF AN H2S COMPOUND IN AQUEOUS EFFLUENTS PASSING INTO A PIPE” (CENTRE NATIONAL DE LA RECHERCHE SCIENTIFIQUE (CNRS), priority 2010, published 2012)
Like-named read-outs stand apart in the source and are kept apart here.

What was measured:
[1] = tested on: Desulfovibrio vulgaris Hindelborough (DvH); assay: H2S production by stationary-phase DvH culture on lactate/sulfate medium with metabolic inhibitors; type: cell-based; details: for effect of metabolic inhibitor on DvH culture / H2S production: tested at different concentrations
Procedure: Experiments were carried out with the SRB bacterium Desulfovibrio vulgaris Hindelborough (DvH) for which the genome has been sequenced and which is the model system for the study of sulfate-reducing bacteria.
The culture medium was a lactate/sulfate medium comprising: sodium sulfate 28 mM, magnesium sulfate 8 mM, lactate 45 mM and oligoelements (iron, Zn, Mn, Cu, Co, Mo, Ni, Se, W, Mg).
Various metabolic inhibitors were tested at different concentrations; examples were the addition of iron, oxygen, or a detergent. […] The study was continued by looking at the effect of adding small defined quantities of nitrite and nitrate on the production of H2S by the SRB.

[2] = tested on: DvH+Shewanella consortium; details: 5 mM; for production of H2S: FIG. 3 panel B
From the text: FIG. 3 represents the effect of adding exogenous bacteria of the Shewanella type on the growth of a strain of sulfate-reducing bacteria, DvH, in the presence of nitrate or nitrite (panel A, %=quantity of biomass expressed as a % of the optical density (OD) at 600 nm [nanometers], such that 100% represents the OD at 600 nm for the biomass of a culture of DvH on a lactate/sulfate medium in the absence of treatment) and on the production of H2S (panel B, mM H2S). The control (growth and production of H2S) used a DvH culture with or without the addition of inhibitor. The effect of adding the Shewanella bacteria on the growth and production of H2S is presented in the presence of nitrate (+nitrite) and in the absence of nitrite (nitrite). The Shewanella bacteria alone had no significant effect on H2S production. In FIG. 3, the various symbols represent the experiments under the following conditions: ? =5 mM of nitrate on a DvH+Shewanella consortium, ? =consortium of DvH+Shewanella bacteria in the presence of 5 mM of nitrite, ? =presence of DvH bacteria alone, ? =presence of DvH bacteria alone+nitrite;
A wide range of non-pathogenic aerobic and anaerobic bacteria known to be decontaminants that are compatible with a toxic environment was tested, including the following Gram− aerobic bacteria: Shewanella oneidensis, Rhodobacter sphaeroides, Rhodobacter denitrificans, R. velkampi, Pseudomonas stutzeri, Pseudomonas zobell and Rhospeudomonas palustri, as well as the following anaerobic Gram+ bacteria: Bacillus mojavensis and Bacillus amiloliquefaciens.
However, it has been discovered that it is possible to overcome this bactericidal effect problem by adding exogenic bacteria.

[3] = tested on: sulfate-reducing bacteria (SRB)
Procedure: Experiments were carried out on a sewerage system diagrammatically shown in FIG. 6, comprising a cesspool 3 supplied with effluent 1 from a conduit 11, a lifting pump 4 that was used to supply a force main 2 from the cesspool 3 to a holding tank 8 cooperating with a gravity fed transfer conduit 9 to a treatment plant (not shown).
The force main 2 was 1170 m [meter] long with a nominal diameter of 250 mm [millimeter], giving a volume of 57.5 m^3. The delivery of the lifting pump was 150 m^3/hour. A nitrite tank 12 cooperated with a dosing pump 7 to inject nitrite into the effluents entering the force main 2.
Sodium nitrite NaNO2 was tested in 40% by weight solution with a density of 1.3. This reagent was injected directly into the effluent pumping pit almost level with the inlet thereof into the force main via a dedicated dosing pump 7 that could reach a delivery of up to 14 L/h. Start-up of the dosing pump 7 was linked with that of the lifting pump 4 with the two pumps being stopped by a low level of effluents in the cesspool 3.
Various measurements for the concentration of sulfide in water leaving the force main were carried out. The concentration of sulfide in water was determined by means of an assay kit using the reaction of H2S with aniline forming a colorless intermediate that is oxidized by ferric ions to a colored compound: methylene blue, an optical disk comparator with a color gradient, was used to determine the concentration of sulfide in the solution as a function of its color. The temperatures of the effluent and redox potential were measured at the holding tank or settling tank 8 using standard equipment.

[4] = tested on: Desulfovibrio vulgaris Hindelborough (DvH); details: SRB pure strain (DvH alone), FIG. 2
From the text: FIG. 2 represents the relationship between the quantity of biomass (%) and the production of H2S (mM) for a stationary phase culture of DvH bacteria in the presence of different concentrations of nitrites or nitrates in the culture medium. The quantity of biomass (bacterial survival) is expressed as the % optical density (OD) at 600 nm [nanometer] compared with the OD at 600 nm of the biomass for a DvH culture on a lactate/sulfate medium in the absence of treatment, this culture representing 100%;
In FIG. 2, the quantities of biomass (% growth) and production of H2S (mM) are shown under the following conditions: ? =% growth+nitrite, ? =H2S production+nitrite, ? =% growth+nitrate, ? H2S production+nitrate;
In FIG. 2, bacterial survival was monitored.

[5] = tested on: bacteria from the sludge sample (Shigella/Escherichia coli/Salmonella, Clostridium, Desulfovibrio type)
[6] = tested on: SRB bacteria that produce H2S; details: treatment with nitrite alone; cited from earlier work

O=O [oxygen]
effect of metabolic inhibitor on DvH culture / H2S production [1]: production of H2S restarted as soon as the redox potential of the medium became negative again

O=[N+]([O-])O [nitrate]
production of H2S [2]: no significant reduction in H2S production was observed
concentration giving visible and substantial inhibition of H2S production [1]: 15 mM
reduction of the production of H2S [1]: approximately 90%

O=NO [sodium nitrite]
maximum quantity of dissolved sulfide H2S at the outlet from the force main ([3]; 2.5 g/m^3 to 6 g/m^3 per g/m^3 of sulfide to be reduced, every other day or overnight): ≤ 1.5 mg/L
quantity of dissolved sulfites at the force main outlet ([3]; 4 g to 5 g per gram of dissolved sulfide produced in the absence of treatment): ≤ 1 mg/L
reduction of dissolved sulfide produced by the conduit ([3]; daily treatments with 2.5 g/m^3 to 6 g/m^3 of NaNO2): 1 g/m^3
remanence of inhibiting activity ([3]; on-site, transient and intermittent treatment): remanence effect
bacterial survival [4]: lethal effect on bacteria

[Fe] [iron]
effect of metabolic inhibitor on DvH culture / H2S production [1]: induced a drastic oxidizing stress and caused bacterial death

O=NO [nitrite]
biomass ([2]; FIG. 3 panel A): maintaining the biomass
production of H2S [2]: reduction in the production of H2S
biomass (bactericidal effect) ([5]; beyond 5 mM of nitrite): biomass was slightly affected
inhibiting effect on H2S production ([5]; beyond 5 mM of nitrite): inhibiting effect on H2S production reduced
cell death ([5]; even in the absence of Shewanella, concentration 5 mM or less): did not induce cell death
duration of the effect on the bacteria after nitrite is consumed ([5]; nitrite consumed over time): long-lasting effect or remanence effect
concentration from which a drop in the production of H2S is induced ([5]; sludge sample): ≥ 3 mM
concentration giving visible and substantial inhibition of H2S production [1]: ≥ 5 mM
reduction of the production of H2S [1]: approximately 90%
rise in the sulfide concentrations after stopping the nitrite treatment ([3]; after 24 h): no more than 25%
rise in the sulfide concentrations after stopping the nitrite treatment ([3]; after stopping treatment): approximately 10%
effect on hydrogen sulfide production [6]: No effect on hydrogen sulfide production is observed
